Measurements as given in PubChem BioAssay (NCI).
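At the GI50, growth is halved. TGI marks complete inhibition of growth.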

Tests used:
Test in all cases: NCI-60 cell line screen, 384-well format
MDA-MB-468 breast = test system: MDA-MB-468 breast
DU-145 prostate = test system: DU-145 prostate
A498 renal = test system: A498 renal
NCI-H23 lung = test system: NCI-H23 lung
786-0 renal = test system: 786-0 renal
TK-10 renal = test system: TK-10 renal
MDA-MB-231 breast = test system: MDA-MB-231 breast
OVCAR-4 ovarian = test system: OVCAR-4 ovarian
UACC-257 melanoma = test system: UACC-257 melanoma
OVCAR-3 ovarian = test system: OVCAR-3 ovarian
MDA-MB-435 melanoma = test system: MDA-MB-435 melanoma
HCC-2998 colon = test system: HCC-2998 colon
HCT-116 colon = test system: HCT-116 colon
NCI-H522 lung = test system: NCI-H522 lung
SF-295 CNS = test system: SF-295 CNS
BT-549 breast = test system: BT-549 breast
COLO 205 colon = test system: COLO 205 colon
CAKI-1 renal = test system: CAKI-1 renal
HOP-62 NSCLC = test system: HOP-62 NSCLC
ACHN renal = test system: ACHN renal
SK-MEL-5 melanoma = test system: SK-MEL-5 melanoma
HT29 colon = test system: HT29 colon
RXF 393 renal = test system: RXF 393 renal
SF-539 CNS = test system: SF-539 CNS
UO-31 renal = test system: UO-31 renal
NCI/ADR-RES ovarian = test system: NCI/ADR-RES ovarian
NCI-H226 lung = test system: NCI-H226 lung
MCF7 breast = test system: MCF7 breast
HCT-15 colon = test system: HCT-15 colon
SK-MEL-28 melanoma = test system: SK-MEL-28 melanoma
OVCAR-5 ovarian = test system: OVCAR-5 ovarian
CCRF-CEM leukemia = test system: CCRF-CEM leukemia
MALME-3M melanoma = test system: MALME-3M melanoma
U251 glioblastoma = test system: U251 glioblastoma
RPMI-8226 leukemia = test system: RPMI-8226 leukemia
T-47D breast = test system: T-47D breast
PC-3 prostate = test system: PC-3 prostate
SW-620 colon = test system: SW-620 colon
OVCAR-8 ovarian = test system: OVCAR-8 ovarian
SR leukemia = test system: SR leukemia
SN12C renal = test system: SN12C renal
MOLT-4 leukemia = test system: MOLT-4 leukemia
SNB-19 CNS = test system: SNB-19 CNS
UACC-62 melanoma = test system: UACC-62 melanoma
M14 melanoma = test system: M14 melanoma
SF-268 CNS = test system: SF-268 CNS
HOP-92 NSCLC = test system: HOP-92 NSCLC
IGROV1 ovarian = test system: IGROV1 ovarian
SK-MEL-2 melanoma = test system: SK-MEL-2 melanoma
KM12 colon = test system: KM12 colon
A549 NSCLC = test system: A549 NSCLC
SK-OV-3 ovarian = test system: SK-OV-3 ovarian
NCI-H460 NSCLC = test system: NCI-H460 NSCLC
NCI-H322M lung = test system: NCI-H322M lung
HL-60(TB) leukemia = test system: HL-60(TB) leukemia
LOX IMVI melanoma = test system: LOX IMVI melanoma

Cc1ccc(NC(=O)c2ccc(CN3CC[C@H](N(C)C)C3)c(C(F)(F)F)c2)cc1Nc1nccc(-c2cncnc2)n1
GI50 (MDA-MB-468 breast): 2.18 µM
TGI (MDA-MB-468 breast): 3.66 µM
GI50 (DU-145 prostate): 6.8 µM
TGI (DU-145 prostate): 18.9 µM
GI50 (A498 renal): 2.69 µM
TGI (A498 renal): 6.22 µM
GI50 (NCI-H23 lung): 2.06 µM
TGI (NCI-H23 lung): 7.78 µM
GI50 (786-0 renal): 1.89 µM
TGI (786-0 renal): 3.47 µM
GI50 (TK-10 renal): 2.2 µM
TGI (TK-10 renal): 4.71 µM
GI50 (MDA-MB-231 breast): 1.75 µM
TGI (MDA-MB-231 breast): 3.24 µM
GI50 (OVCAR-4 ovarian): 2.43 µM
TGI (OVCAR-4 ovarian): 6.6 µM
GI50 (UACC-257 melanoma): 0.43 µM
TGI (UACC-257 melanoma): 1.76 µM
GI50 (OVCAR-3 ovarian): 2.4 µM
TGI (OVCAR-3 ovarian): 5.42 µM
GI50 (MDA-MB-435 melanoma): 1.05 µM
TGI (MDA-MB-435 melanoma): 3.51 µM
GI50 (HCC-2998 colon): 1.16 µM
TGI (HCC-2998 colon): 2.64 µM
GI50 (HCT-116 colon): 1.38 µM
TGI (HCT-116 colon): 2.74 µM
GI50 (NCI-H522 lung): 1.52 µM
TGI (NCI-H522 lung): 3.4 µM
GI50 (SF-295 CNS): 1.9 µM
TGI (SF-295 CNS): 3.42 µM
GI50 (BT-549 breast): 3.96 µM
TGI (BT-549 breast): 10 µM
GI50 (COLO 205 colon): 0.396 µM
TGI (COLO 205 colon): 1.78 µM
GI50 (CAKI-1 renal): 2.86 µM
TGI (CAKI-1 renal): 6.72 µM
GI50 (HOP-62 NSCLC): 2.19 µM
TGI (HOP-62 NSCLC): 6.54 µM
GI50 (ACHN renal): 1.84 µM
TGI (ACHN renal): 4.1 µM
GI50 (SK-MEL-5 melanoma): 0.674 µM
TGI (SK-MEL-5 melanoma): 1.99 µM
GI50 (HT29 colon): 0.947 µM
TGI (HT29 colon): 2.19 µM
GI50 (RXF 393 renal): 1.52 µM
TGI (RXF 393 renal): 3.22 µM
GI50 (SF-539 CNS): 1.43 µM
TGI (SF-539 CNS): 2.75 µM
GI50 (UO-31 renal): 2 µM
TGI (UO-31 renal): 4.13 µM
GI50 (NCI/ADR-RES ovarian): 3.88 µM
TGI (NCI/ADR-RES ovarian): 13.3 µM
GI50 (NCI-H226 lung): 2.09 µM
TGI (NCI-H226 lung): 5.07 µM
GI50 (MCF7 breast): 2.31 µM
TGI (MCF7 breast): 7.76 µM
GI50 (HCT-15 colon): 2.49 µM
TGI (HCT-15 colon): 5.66 µM
GI50 (SK-MEL-28 melanoma): 0.304 µM
TGI (SK-MEL-28 melanoma): 1.13 µM
GI50 (OVCAR-5 ovarian): 1.86 µM
TGI (OVCAR-5 ovarian): 4.57 µM
GI50 (CCRF-CEM leukemia): 1.99 µM
TGI (CCRF-CEM leukemia): 3.44 µM
GI50 (MALME-3M melanoma): 0.147 µM
TGI (MALME-3M melanoma): 0.436 µM
GI50 (U251 glioblastoma): 1.95 µM
TGI (U251 glioblastoma): 3.76 µM
GI50 (RPMI-8226 leukemia): 1.34 µM
TGI (RPMI-8226 leukemia): 2.62 µM
GI50 (T-47D breast): 1.53 µM
TGI (T-47D breast): 3.06 µM
GI50 (PC-3 prostate): 3.38 µM
TGI (PC-3 prostate): 8.45 µM
GI50 (SW-620 colon): 3.08 µM
TGI (SW-620 colon): 10.6 µM
GI50 (OVCAR-8 ovarian): 2.19 µM
TGI (OVCAR-8 ovarian): 5.3 µM
GI50 (SR leukemia): 1.82 µM
TGI (SR leukemia): 3.23 µM
GI50 (SN12C renal): 2.58 µM
TGI (SN12C renal): 6.55 µM
GI50 (MOLT-4 leukemia): 1.78 µM
TGI (MOLT-4 leukemia): 3.17 µM
GI50 (SNB-19 CNS): 4.56 µM
TGI (SNB-19 CNS): 13.6 µM
GI50 (UACC-62 melanoma): 0.318 µM
TGI (UACC-62 melanoma): 1.29 µM
GI50 (M14 melanoma): 0.233 µM
TGI (M14 melanoma): 0.811 µM
GI50 (SF-268 CNS): 2.72 µM
TGI (SF-268 CNS): 6.99 µM
GI50 (HOP-92 NSCLC): 1.64 µM
TGI (HOP-92 NSCLC): 3.14 µM
GI50 (IGROV1 ovarian): 3.68 µM
TGI (IGROV1 ovarian): 13.9 µM
GI50 (SK-MEL-2 melanoma): 1.2 µM
TGI (SK-MEL-2 melanoma): 2.46 µM
GI50 (KM12 colon): 2.51 µM
TGI (KM12 colon): 5.92 µM
GI50 (A549 NSCLC): 3.01 µM
TGI (A549 NSCLC): 10.9 µM
GI50 (SK-OV-3 ovarian): 2.09 µM
TGI (SK-OV-3 ovarian): 4.53 µM
GI50 (NCI-H460 NSCLC): 1.67 µM
TGI (NCI-H460 NSCLC): 3.35 µM
GI50 (NCI-H322M lung): 3.92 µM
TGI (NCI-H322M lung): 12.8 µM
GI50 (HL-60(TB) leukemia): 0.433 µM
TGI (HL-60(TB) leukemia): 1.31 µM
GI50 (LOX IMVI melanoma): 1.03 µM
TGI (LOX IMVI melanoma): 2.22 µM
